Results from US20250213705A1, “PSMA TARGETING LIGANDS AND METHODS OF USE” (Bright Peak Therapeutics AG, priority 2023, published 2025).

How the values were obtained:
[1] = target: PSMA+ cells (22rv1 human prostate carcinoma epithelial cell line) (Homo sapiens (Human), UniProt Q04609); assay: Cellular competition assay on PSMA+ cells (flow cytometry, competition with BPT1288), 22rv1; format: cell-based
Protocol: On the day of experiment, cells were harvested with Trypsin and washed with assay buffer consisting of 1×PBS supplemented with 2% FBS and stained with viability dye (Biolegend Zombie NIR) diluted 1:1000 in PBS for 20 minutes. After washing and counting, cells were seeded at 50,000 cells/well in a 96 well V bottom polypropylene plate and kept on ice. Twelve 4-fold serial dilutions of analytes were prepared in cold assay buffer and added to cell suspension.
Single-cell AlexaFluor488 fluorescence emission was measured with a flow cytometer and plotted against analyte concentration in X-axis. Half maximal inhibition concentrations (IC50) were calculated based on a variable slope and four parameter analysis using GraphPad PRISM software

[2] = target: Recombinant Human PSMA/FOLH1 Protein (Homo sapiens (Human), UniProt Q04609); assay: Inhibition assay (Amplex Red glutamic acid/glutamate oxidase, NAAG substrate); format: biochemical; settings: Target PSMA, average of N replicates; for IC50: PSMA 5 nM, NAAG 40 μM; for Ki: calculated based on Cheng-Prusoff equation
Chain of Recombinant Human PSMA/FOLH1 Protein (Q04609 whole entry): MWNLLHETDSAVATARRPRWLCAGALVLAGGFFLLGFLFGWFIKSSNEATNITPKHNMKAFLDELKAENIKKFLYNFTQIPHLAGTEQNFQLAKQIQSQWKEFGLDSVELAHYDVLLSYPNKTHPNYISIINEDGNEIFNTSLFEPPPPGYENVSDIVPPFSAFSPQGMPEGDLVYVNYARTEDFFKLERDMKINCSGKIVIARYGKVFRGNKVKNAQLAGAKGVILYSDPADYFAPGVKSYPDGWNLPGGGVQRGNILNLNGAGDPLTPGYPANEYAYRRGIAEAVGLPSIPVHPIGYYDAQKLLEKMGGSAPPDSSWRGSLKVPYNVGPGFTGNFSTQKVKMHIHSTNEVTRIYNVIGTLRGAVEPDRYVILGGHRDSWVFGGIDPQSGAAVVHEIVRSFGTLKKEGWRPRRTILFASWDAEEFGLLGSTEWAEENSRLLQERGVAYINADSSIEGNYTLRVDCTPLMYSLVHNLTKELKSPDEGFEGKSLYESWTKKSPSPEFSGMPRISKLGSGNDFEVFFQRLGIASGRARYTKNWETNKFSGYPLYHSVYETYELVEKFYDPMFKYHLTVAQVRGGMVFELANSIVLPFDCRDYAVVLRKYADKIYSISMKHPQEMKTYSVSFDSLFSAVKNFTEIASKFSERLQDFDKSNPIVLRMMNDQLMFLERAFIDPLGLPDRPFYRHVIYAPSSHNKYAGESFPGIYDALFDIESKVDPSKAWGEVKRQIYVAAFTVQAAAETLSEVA
Protocol: Amplex™ Red Glutamic Acid/Glutamate Oxidase Assay Kit Catalog number: A12221 (Thermofisher); Recombinant Human PSMA/FOLH1 Protein, CF (rnd systems); N-Acetyl-Asp-Glu (NAAG) (Sigma Aldrich; 96 well half area plate; Enspire plate reader.
Prepare a working solution of 100 μM Amplex® Red reagent containing 0.25 U/mL HRP, 0.08 U/mL L-glutamate oxidase, 0.5 U/mL 1-glutamate-pyruvate transaminase, 200 μM L-alanine and keep protected from light. […] Final concentration is 5 nM. Transfer 10 μl/well of the inhibitor solution previously prepared in a separate 96 wells/plate.
Pipette 20 μl/well of the working solution prepared above. Incubate the reactions for 30 min at 37° C., protected from light. Because the assay is continuous (not terminated), fluorescence may be measured at multiple time points to follow the kinetics of the reactions. Measure the fluorescence in a fluorescence microplate reader using excitation in the range of 530-560 nm and emission detection at ˜590 nm. Ec50s were determined with GraphPad Prism. Ki is calculated based on Cheng-Prusoff equation.

[3] = target: human FOLH1 (Homo sapiens (Human), UniProt Q04609); assay: SPR analysis of binding kinetics to biotinylated FOLH1 (Biacore 8K); settings: ligand PSMA; for Kd: kinetic 1:1 binding model; for Kon: association rate; for koff: dissociation rate
Chain of human FOLH1 (Q04609 whole entry): as above
Protocol: The interaction of PSMA-binding variants with human FOLH1 was measured with Surface Plasmon Resonance (SPR) technology. Biotinylated FOLH1 was captured at a concentration of 30 μg/mL onto a Streptavidin chip.
Binding kinetics of the analytes were measured with a Biacore 8K instrument in two-fold serial dilutions starting at 500 nM down to 1.95 nM in single cycle kinetic measurements. After each cycle, needles were washed with 50% DMSO. To measure the association to the FOLH1 protein, the samples were injected with a flow rate of 30 μL/min for 90 s, followed by 1200 s buffer only to detect the dissociation. The used running buffer was 1×PBS with 0.05% Tween20 and 2% DMSO. The relative response units (RU, Y-axis) are plotted against time (s, X-axis) and analyzed in a kinetic 1:1 binding model.
In a different setup, biotinylated FOLH1 was captured at a concentration of 0.8 μg/mL and the running buffer was 1×PBS with 0.05% Tween20.

Chain of PSMA+ cells (22rv1 human prostate carcinoma epithelial cell line) (Q04609 whole entry): as above

Row | Compound | IC50 [1] [nM] | IC50 [2] [nM] | Ki [2] [nM] | Kd [3] [nM] | Kon [3] | koff [3] [s⁻¹]
1 | CC(=O)NCCOCCOCCOCCC(=O)NC[C@H]1CC[C@H](C(=O)N[C@@H](Cc2ccc3ccccc3c2)C(=O)NCCCC[C@H](NC(=O)N[C@@H](CCC(=O)O)C(=O)O)C(=O)O)CC1 [Compound 8] | 2.65 | 29.3 | 0.21 | 0.654 |  | 
2 | CC(=O)NCCOCCOCCOCCC(=O)NC[C@H]1CC[C@H](C(=O)N[C@@H](Cc2ccc(OCc3ccccc3)cc2)C(=O)NCCCC[C@H](NC(=O)N[C@@H](CCC(=O)O)C(=O)O)C(=O)O)CC1 [Compound 16] |  | 331 | 2.37 | 7.73 | 461000 1.ms | 0.00356
3 | CC(=O)NCCOCCOCCOCCC(=O)NC[C@H]1CC[C@H](C(=O)N[C@@H](Cc2ccccc2)C(=O)NCCCC[C@H](NC(=O)N[C@@H](CCC(=O)O)C(=O)O)C(=O)O)CC1 [Compound 17] |  | 92.6 | 0.662 | 1.65 | 125000 1.ms | 0.000207
4 | CC(=O)NCCOCCOCCOCCC(=O)NC[C@H]1CC[C@H](C(=O)N[C@@H](Cc2ccc(C(=O)O)cc2)C(=O)NCCCC[C@H](NC(=O)N[C@@H](CCC(=O)O)C(=O)O)C(=O)O)CC1 [Compound 21] |  | 201 | 1.44 | 10.6 | 183000 1.ms | 0.00194
5 | CC(=O)NCCOCCOCCOCCC(=O)NC[C@H]1CC[C@H](C(=O)N[C@@H](Cc2ccc3ccccc3c2)C(=O)NCCCC[C@H](NC(=O)N[C@@H](CCCC(=O)O)C(=O)O)C(=O)O)CC1 [Compound 24] |  | 3350 | 24 | 35.2 | 305000 1.ms | 0.0107
6 | CC(=O)NCCOCCOCCOCCC(=O)N(CCCOc1ccc(F)cc1F)CC(=O)NC[C@H]1CC[C@H](C(=O)N[C@@H](Cc2ccc3ccccc3c2)C(=O)NCCCC[C@H](NC(=O)N[C@@H](CCC(=O)O)C(=O)O)C(=O)O)CC1 [Compound 39] |  | 50.5 | 0.361 | 1.08 | 223000 1.ms | 0.00024
7 | CC(=O)NCCOCCOCCOCCC(=O)N[C@@H](CCCOc1ccc(F)cc1F)C(=O)NC[C@H]1CC[C@H](C(=O)N[C@@H](Cc2ccc3ccccc3c2)C(=O)NCCCC[C@H](NC(=O)N[C@@H](CCC(=O)O)C(=O)O)C(=O)O)CC1 [Compound 40] |  | 155 | 1.11 | 1.62 | 153000 1.ms | 0.000249
8 | C=CC[C@H](NC(=O)CCOCCOCCOCCNC(C)=O)C(=O)NC[C@H]1CC[C@H](C(=O)N[C@@H](Cc2ccc3ccccc3c2)C(=O)NCCCC[C@H](NC(=O)N[C@@H](CCC(=O)O)C(=O)O)C(=O)O)CC1 [Compound 41] |  | 88.1 | 0.63 | 1.95 | 102000 1.ms | 0.000199
9 | CC(=O)NCCOCCOCCOCCC(=O)NC[C@H]1CC[C@H](C(=O)N[C@@H](Cc2ccc3ccccc3c2)C(=O)NCCCC[C@H](NC(=O)N[C@@H](CCc2n[nH]c(=O)o2)C(=O)O)C(=O)O)CC1 [Compound 48] |  | 10300 | 73.5 | 1650 |  | 
10 | CC(=O)NCCOCCOCCOCCC(=O)NC[C@H]1CC[C@H](C(=O)N[C@@H](Cc2ccc3ccccc3c2)C(=O)NCCCC[C@H](NC(=O)N[C@@H](Cc2ccco2)C(=O)O)C(=O)O)CC1 [Compound 49] |  | 16500 | 118 | 3080 |  | 
11 | CC(=O)NCCOCCOCCOCCC(=O)N[C@@H](CCCOc1cc(C#N)cc(C#N)c1)C(=O)NCC(=O)N[C@@H](Cc1ccc2ccccc2c1)C(=O)NCCCC[C@H](NC(=O)N[C@@H](CCC(=O)O)C(=O)O)C(=O)O [Compound 52] |  | 26.1 | 0.187 | 1.12 | 291000 1.ms | 0.000326
12 | CC(=O)NCCOCCOCCOCCC(=O)N1C[C@H](NC(=O)COc2cc(C#N)cc(C#N)c2)C[C@H]1C(=O)N[C@@H](Cc1ccc2ccccc2c1)C(=O)NCCCC[C@H](NC(=O)N[C@@H](CCC(=O)O)C(=O)O)C(=O)O [Compound 79] |  | 7.79 | 0.0557 | 3.76 | 137000 1.ms | 0.000515
13 | CC(=O)NCCOCCOCCOCCC(=O)N(CCCCOc1cc(C#N)cc(C#N)c1)CC(=O)N[C@@H](Cc1ccc2ccccc2c1)C(=O)NCCCC[C@H](NC(=O)N[C@@H](CCC(=O)O)C(=O)O)C(=O)O [Compound 87] |  | 1480 | 10.6 | 0.5 | 272000 1.ms | 0.000136
14 | CC(=O)NCCOCCOCCOCCC(=O)N(CCCCOc1cc(C(F)(F)F)cc(C(F)(F)F)c1)CC(=O)N[C@@H](Cc1ccc2ccccc2c1)C(=O)NCCCC[C@H](NC(=O)N[C@@H](CCC(=O)O)C(=O)O)C(=O)O [Compound 88] |  | 63.3 | 0.452 | 1.53 | 215000 1.ms | 0.000329
15 | CC(=O)NCCOCCOCCOCCC(=O)N1C[C@H](NC(=O)COc2cc(C#N)cc(C#N)c2)C[C@H]1C(=O)NCC(=O)N[C@@H](Cc1ccc2ccccc2c1)C(=O)NCCCC[C@H](NC(=O)N[C@@H](CCC(=O)O)C(=O)O)C(=O)O [Compound 89] |  | 93.5 | 0.669 | 2.58 | 121000 1.ms | 0.000311
16 | CC(=O)NCCOCCOCCOCCC(=O)N[C@@H]1C[C@@H](C(=O)NCC(=O)N[C@@H](Cc2ccc3ccccc3c2)C(=O)NCCCC[C@H](NC(=O)N[C@@H](CCC(=O)O)C(=O)O)C(=O)O)N(C(=O)COc2cc(C#N)cc(C#N)c2)C1 [Compound 90] |  | 87.6 | 0.626 | 1.27 | 183000 1.ms | 0.000232
17 | CC(=O)NCCOCCOCCOCCC(=O)N[C@@H](Cc1cccc(C(=O)O)c1)C(=O)NCCC(=O)N[C@@H](Cc1ccc2ccccc2c1)C(=O)NCCCC[C@H](NC(=O)N[C@@H](CCC(=O)O)C(=O)O)C(=O)O [Compound 93] |  | 9.6 | 0.0686 | 1.73 | 149000 1.ms | 0.000258
18 | CC(=O)NCCOCCOCCOCCC(=O)N[C@@H](Cc1ccc(C(=O)O)cc1)C(=O)NCCC(=O)N[C@@H](Cc1ccc2ccccc2c1)C(=O)NCCCC[C@H](NC(=O)N[C@@H](CCC(=O)O)C(=O)O)C(=O)O [Compound 95] |  | 11.5 | 0.0823 | 1.95 | 124000 1.ms | 0.000242
19 | CC(=O)NCCOCCOCCOCCC(=O)N[C@@H](Cc1ccc(C(=O)O)cc1)C(=O)NCCCC(=O)N[C@@H](Cc1ccc2ccccc2c1)C(=O)NCCCC[C@H](NC(=O)N[C@@H](CCC(=O)O)C(=O)O)C(=O)O [Compound 97] |  | 10.8 | 0.077 | 3.64 | 90100 1.ms | 0.000328
